Measured values taken from PubChem BioAssay (NCI).
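All cell lines were grown in 96-well plates and treated with compound for 48 hours. TGI marks complete inhibition of growth.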

Experiments:
Test in all cases: NCI tumour cell line growth inhibition, 48 h
IGROV1 ovarian = system: IGROV1 ovarian
HOP-62 NSCLC = system: HOP-62 NSCLC
OVCAR-5 ovarian = system: OVCAR-5 ovarian
HCT-15 colon = system: HCT-15 colon
MDA-MB-231 breast = system: MDA-MB-231 breast
KM12 colon = system: KM12 colon
RXF 393 renal = system: RXF 393 renal
T-47D breast = system: T-47D breast
SK-MEL-5 melanoma = system: SK-MEL-5 melanoma
SN12C renal = system: SN12C renal

For `O=C(C1=C(C(=O)c2ccccc2)SC2(S1)C(C(=O)c1ccccc1)=C(C(=O)c1ccccc1)Sc1c2ssc1=O)c1ccccc1`, the TGI (IGROV1 ovarian) was over 100 µM, the TGI (HOP-62 NSCLC) was over 100 µM and the TGI (OVCAR-5 ovarian) was 59.2 µM. The TGI (HCT-15 colon) was over 100 µM, the TGI (MDA-MB-231 breast) was over 100 µM and the TGI (KM12 colon) was 92.7 µM. For the same molecule, the TGI (RXF 393 renal) was over 100 µM, the TGI (T-47D breast) was over 100 µM and the TGI (SK-MEL-5 melanoma) was over 100 µM. The TGI (SN12C renal) was over 100 µM.
With `CC(=O)O[C@H]1C#C/C=C\C#CC[C@@H]2C(=O)N(C(=O)OC(C)(C)C)[C@@H]12` the TGI (IGROV1 ovarian) was over 100 µM, the TGI (HOP-62 NSCLC) was 39.6 µM and the TGI (OVCAR-5 ovarian) was over 100 µM. It also gave a TGI (HCT-15 colon) of 51.4 µM, a TGI (MDA-MB-231 breast) of over 100 µM and a TGI (KM12 colon) of over 86.7 µM. The TGI (RXF 393 renal) was 56.4 µM, the TGI (T-47D breast) was 88.6 µM and the TGI (SK-MEL-5 melanoma) was over 100 µM. The TGI (SN12C renal) was over 71.6 µM.
`OC1CCCC1C(O)(C(F)(F)F)C(F)(F)F` (stereo not given) gave a TGI (IGROV1 ovarian) of over 100 µM, a TGI (HOP-62 NSCLC) of over 100 µM and a TGI (OVCAR-5 ovarian) of over 100 µM. It also gave a TGI (HCT-15 colon) of over 100 µM, a TGI (MDA-MB-231 breast) of over 100 µM and a TGI (KM12 colon) of over 100 µM. The TGI (RXF 393 renal) was over 100 µM, the TGI (T-47D breast) was over 100 µM and the TGI (SK-MEL-5 melanoma) was over 100 µM. For the same molecule, the TGI (SN12C renal) was over 100 µM.
With `CNC(=O)CCC(NC(C)=O)C(=O)NC(Cc1ccc(NC(=O)CCCCC(C)=O)cc1)C(=O)NC(CCC(=O)NC)C(=O)NC` (stereo not given) the TGI (IGROV1 ovarian) was over 100 µM, the TGI (HOP-62 NSCLC) was over 100 µM and the TGI (OVCAR-5 ovarian) was over 100 µM. The TGI (HCT-15 colon) was over 100 µM, the TGI (MDA-MB-231 breast) was over 100 µM and the TGI (KM12 colon) was over 100 µM. For the same molecule, the TGI (RXF 393 renal) was over 100 µM, the TGI (T-47D breast) was over 100 µM and the TGI (SK-MEL-5 melanoma) was over 100 µM. For the same molecule, the TGI (SN12C renal) was over 100 µM.
For `S=C(N/N=C\C=N/NC(=S)N1CCCCCC1)N1CCCCCC1`, the TGI (IGROV1 ovarian) was over 100 µM, the TGI (HOP-62 NSCLC) was over 60.9 µM and the TGI (OVCAR-5 ovarian) was over 100 µM. It also gave a TGI (HCT-15 colon) of over 100 µM, a TGI (MDA-MB-231 breast) of over 100 µM and a TGI (KM12 colon) of over 100 µM. For the same molecule, the TGI (RXF 393 renal) was 90.9 µM, the TGI (T-47D breast) was 21.8 µM and the TGI (SK-MEL-5 melanoma) was over 100 µM. It also gave a TGI (SN12C renal) of over 100 µM.
Molecule `Nc1ccc2c(c1)C(=O)c1ccccc1-2` has a TGI (IGROV1 ovarian) of over 100 µM, a TGI (HOP-62 NSCLC) of over 100 µM and a TGI (OVCAR-5 ovarian) of over 100 µM. The TGI (HCT-15 colon) was over 100 µM, the TGI (MDA-MB-231 breast) was over 100 µM and the TGI (KM12 colon) was over 100 µM. For the same molecule, the TGI (RXF 393 renal) was over 100 µM, the TGI (T-47D breast) was over 100 µM and the TGI (SK-MEL-5 melanoma) was over 100 µM. It also gave a TGI (SN12C renal) of over 100 µM.
`C/C(O)=C(\C=N\C(N)=S)C(=O)Nc1ccccc1C` showed a TGI (IGROV1 ovarian) of over 100 µM, a TGI (HOP-62 NSCLC) of over 100 µM and a TGI (OVCAR-5 ovarian) of over 100 µM. The TGI (HCT-15 colon) was over 100 µM, the TGI (MDA-MB-231 breast) was over 100 µM and the TGI (KM12 colon) was over 100 µM. It also gave a TGI (RXF 393 renal) of over 100 µM, a TGI (T-47D breast) of over 100 µM and a TGI (SK-MEL-5 melanoma) of over 100 µM. It also gave a TGI (SN12C renal) of over 100 µM.
With `COc1ccc(/C=C/c2cc(O)cc(OC)c2)cc1` the TGI (IGROV1 ovarian) was over 100 µM, the TGI (HOP-62 NSCLC) was over 100 µM and the TGI (OVCAR-5 ovarian) was over 100 µM. It also gave a TGI (HCT-15 colon) of 14.4 µM, a TGI (MDA-MB-231 breast) of over 100 µM and a TGI (KM12 colon) of over 100 µM. The TGI (RXF 393 renal) was over 100 µM, the TGI (T-47D breast) was over 100 µM and the TGI (SK-MEL-5 melanoma) was over 100 µM. It also gave a TGI (SN12C renal) of over 100 µM.
`COC(=O)[C@H](C)N1C(=O)N[C@@H](C(C)C)C1=O` was tested, and the TGI (IGROV1 ovarian) was over 100 µM, the TGI (HOP-62 NSCLC) was over 100 µM and the TGI (OVCAR-5 ovarian) was over 100 µM. The TGI (HCT-15 colon) was over 100 µM, the TGI (MDA-MB-231 breast) was over 100 µM and the TGI (KM12 colon) was over 100 µM. For the same molecule, the TGI (RXF 393 renal) was over 100 µM, the TGI (T-47D breast) was over 100 µM and the TGI (SK-MEL-5 melanoma) was over 100 µM. For the same molecule, the TGI (SN12C renal) was over 100 µM.
Molecule `O=C(N/N=C\c1cccc2ccccc12)Nc1ccc([N+](=O)[O-])cc1` has a TGI (IGROV1 ovarian) of over 100 µM, a TGI (HOP-62 NSCLC) of 59.2 µM and a TGI (OVCAR-5 ovarian) of over 71 µM. It also gave a TGI (HCT-15 colon) of over 100 µM, a TGI (MDA-MB-231 breast) of over 100 µM and a TGI (KM12 colon) of over 100 µM. For the same molecule, the TGI (RXF 393 renal) was over 42.6 µM, the TGI (T-47D breast) was over 41.4 µM and the TGI (SK-MEL-5 melanoma) was over 87.2 µM. The TGI (SN12C renal) was over 73 µM.
In the case of `CC(C)CCC[C@@H](C)[C@H]1CC[C@H]2[C@@H]3CC=C4C[C@@H](OC(=O)c5cccc6c(=O)c7ccccc7[nH]c56)CC[C@]4(C)[C@H]3CC[C@]12C`, the TGI (IGROV1 ovarian) is reported as over 75 µM, the TGI (HOP-62 NSCLC) is reported as over 75 µM and the TGI (OVCAR-5 ovarian) is reported as over 75 µM. It also gave a TGI (HCT-15 colon) of over 75 µM, a TGI (MDA-MB-231 breast) of over 75 µM and a TGI (KM12 colon) of over 75 µM. It also gave a TGI (RXF 393 renal) of over 75 µM, a TGI (T-47D breast) of over 75 µM and a TGI (SK-MEL-5 melanoma) of over 75 µM. The TGI (SN12C renal) was over 75 µM.
`O=C1/C(=C/c2ccccc2)CCc2ccc(Cl)nc21` showed a TGI (IGROV1 ovarian) of 17.7 µM, a TGI (HOP-62 NSCLC) of 42 µM and a TGI (OVCAR-5 ovarian) of 33.4 µM. For the same molecule, the TGI (HCT-15 colon) was 11.4 µM, the TGI (MDA-MB-231 breast) was 40.6 µM and the TGI (KM12 colon) was 7.15 µM. The TGI (RXF 393 renal) was 24.8 µM, the TGI (T-47D breast) was 18.6 µM and the TGI (SK-MEL-5 melanoma) was 20.1 µM. For the same molecule, the TGI (SN12C renal) was 18.6 µM.
`Cc1ccc2nc3c(C)c(Cl)c(=O)cc-3sc2c1` gave a TGI (IGROV1 ovarian) of over 100 µM, a TGI (HOP-62 NSCLC) of 69.4 µM and a TGI (OVCAR-5 ovarian) of over 95.8 µM. The TGI (HCT-15 colon) was over 100 µM, the TGI (MDA-MB-231 breast) was 15.8 µM and the TGI (KM12 colon) was 74.1 µM. For the same molecule, the TGI (RXF 393 renal) was 73.7 µM, the TGI (T-47D breast) was over 100 µM and the TGI (SK-MEL-5 melanoma) was 29.7 µM. The TGI (SN12C renal) was over 100 µM.
Molecule `O=C(O)/C=C(/CC(=O)O)C(=O)O` has a TGI (IGROV1 ovarian) of 42.2 µM, a TGI (HOP-62 NSCLC) of 40.1 µM and a TGI (OVCAR-5 ovarian) of over 100 µM. The TGI (HCT-15 colon) was 54 µM, the TGI (MDA-MB-231 breast) was 48 µM and the TGI (KM12 colon) was 61.2 µM. For the same molecule, the TGI (RXF 393 renal) was 34.8 µM, the TGI (T-47D breast) was 48.1 µM and the TGI (SK-MEL-5 melanoma) was 44.1 µM. It also gave a TGI (SN12C renal) of 40.7 µM.
Work on `Cc1cc2ccccc2n1CC(=O)NCC(C)C` yielded a TGI (IGROV1 ovarian) of over 100 µM, a TGI (HOP-62 NSCLC) of over 100 µM and a TGI (OVCAR-5 ovarian) of over 100 µM. The TGI (HCT-15 colon) was over 100 µM, the TGI (MDA-MB-231 breast) was over 100 µM and the TGI (KM12 colon) was over 100 µM. For the same molecule, the TGI (RXF 393 renal) was over 100 µM, the TGI (T-47D breast) was over 100 µM and the TGI (SK-MEL-5 melanoma) was over 100 µM. It also gave a TGI (SN12C renal) of over 100 µM.
Molecule `C#CCNC(Cc1cnc[nH]1)C(=O)O` (stereo not given) has a TGI (IGROV1 ovarian) of over 100 µM, a TGI (HOP-62 NSCLC) of over 100 µM and a TGI (OVCAR-5 ovarian) of over 100 µM. For the same molecule, the TGI (HCT-15 colon) was over 100 µM, the TGI (MDA-MB-231 breast) was over 100 µM and the TGI (KM12 colon) was over 100 µM. The TGI (RXF 393 renal) was over 100 µM, the TGI (T-47D breast) was over 100 µM and the TGI (SK-MEL-5 melanoma) was over 100 µM. The TGI (SN12C renal) was over 100 µM.
In the case of `CC1(C)O[C@@H](CO)[C@H]([C@@]23OC[C@H]4OC(C)(C)OC4[C@@H]2OC(C)(C)O3)O1` (stereo not given in full), the TGI (IGROV1 ovarian) is reported as over 100 µM, the TGI (HOP-62 NSCLC) is reported as over 100 µM and the TGI (OVCAR-5 ovarian) is reported as over 100 µM. It also gave a TGI (HCT-15 colon) of over 100 µM, a TGI (MDA-MB-231 breast) of over 100 µM and a TGI (KM12 colon) of over 100 µM. It also gave a TGI (RXF 393 renal) of over 100 µM, a TGI (T-47D breast) of over 100 µM and a TGI (SK-MEL-5 melanoma) of over 100 µM. The TGI (SN12C renal) was over 100 µM.
